Patent publication US20120301551A1, “COMPOUNDS AND COMPOSITIONS FOR TREATING NEURONAL DEATH OR NEUROLOGICAL DYSFUNCTION” (Neurotech Pharmaceuticals Co., Ltd., priority 2005, published 2012)
Where two headings read alike, the source gives them in different places.

Legend:
cerebral cortical cell = assay: anti-oxidant effect: neuron protecting effect against Fe+2 (50 uM FeCl2); type: cell-based; conditions: cerebral cortical cell treated by 50 uM FeCl2
Procedure: After cerebral cortical cell was treated by 50 uM FeCl2 to induce oxidative stress, the anti-oxidant effects of many compounds were evaluated. Results were shown as IC50 (uM) (Item A of Table 3 below).
(§1) In the Table 3, A, B and C mean neuron protecting effect against Fe^+2, suppressing effect on production of NO and suppressing effect on production of beta-amyloid, respectively. The term “ND” means “Not determined.”

[1] = system: BV-2 cell line (production of NO); assay: anti-inflammatory effect: suppression of LPS-induced production of NO; type: cell-based; conditions: BV-2 cell line treated by LPS; for IC50: read-out: IC50 (uM) B: suppressing effect on production of NO
Procedure: After BV-2 cell line was treated by LPS to induce production of NO, the anti-inflammatory effects of many compounds were evaluated. Results were shown as IC50 (uM) (Item B of Table 3 below).
as §1

beta-amyloid (Aβ42) = assay: suppression of beta-amyloid (Aβ42) production in CHO cells (ELISA); type: cell-based, Chinese hamster
Procedure: The suppressing effects of many drug candidates on production of beta-amyloid were evaluated in CHO cell line having the increased level of beta-amyloid. Results were shown as IC50 (uM) (Item C of Table 3 below).
as §1
Cells were treated with increasing concentrations of various chemicals in Chinese hamster ovary (CHO) cells stably transfected with human wild APP695 and the PS1ΔExon9, and analyzed Aβ42 levels in culture medium by colorimetric sandwich ELISA kit (BIOSOURCE, Camarillo, Calif.). In CHO cells, IC50 of Chemical—01-08 on Aβ42 lowering effect was 20-100 uM (Table 4).

[2] = Cricetulus griseus, CHO cell line having the increased level of beta-amyloid, read-out: IC50 (uM) C: suppressing effect on production of beta-amyloid
[3] = CHO cell line having the increased level of beta-amyloid
[4] = CHO cell line having the increased level of beta-amyloid, read-out: IC50 (uM) C: suppressing effect on production of beta-amyloid
[5] = Cricetulus griseus, CHO cells stably transfected with human wild APP695 and PS1ΔExon9, culture medium, ELISA, read-out: Aβ42 lowering effect (IC50)

Structure (SMILES)	IC50 (cerebral cortical cell; Neuron)	IC50 ([1]; Mus musculus)	other results
O=C(O)c1cc(NCCc2ccc(C(F)(F)F)cc2)ccc1O [Compound 01]	0.099 µM	24.3 µM	IC50 (beta-amyloid (Aβ42); [2]): 19.6 µM
O=C(O)c1cc(NCCc2ccccc2)ccc1O [Compound 02]	1.04 µM	> 100 µM	
O=C(O)c1cc(NCCc2ccccc2C(F)(F)F)ccc1O [Compound 03]	0.1 µM	33 µM	
O=C(O)c1cc(NCCc2cccc(C(F)(F)F)c2)ccc1O [Compound 04]	0.08 µM	26.1 µM	
COc1ccc(CCNc2ccc(O)c(C(=O)O)c2)cc1 [Compound 05]	0.11 µM	60.3 µM	
O=C(O)c1cc(NCCc2cc(F)ccc2F)ccc1O [Compound 06]	0.27 µM	82.2 µM	
O=C(O)c1cc(NCCc2ccccc2Cl)ccc1O [Compound 07]	0.11 µM	60.8 µM	IC50 (beta-amyloid (Aβ42); [2]): 19.1 µM
O=C(O)c1cc(NCCc2cccc(Cl)c2)ccc1O [Compound 08]	0.23 µM	76.5 µM	
O=C(O)c1cc(NCCc2ccccc2Br)ccc1O [Compound 09]	0.14 µM	78.8 µM	
O=C(O)c1cc(NCCc2cccc(Br)c2)ccc1O [Compound 10]	0.23 µM		IC50 (uM) B: suppressing effect on production of NO [1]: No
Cc1ccc(CCNc2ccc(O)c(C(=O)O)c2)cc1 [Compound 11]	0.24 µM	23.9 µM	
O=C(O)c1cc(NCCc2c(F)cccc2F)ccc1O [Compound 12]	0.36 µM	62.7 µM	
COc1ccccc1CCNc1ccc(O)c(C(=O)O)c1 [Compound 13]	0.27 µM	94 µM	
O=C(O)c1cc(NCCc2ccc(Cl)cc2)ccc1O [Compound 14]	0.11 µM	> 100 µM	
COc1cccc(CCNc2ccc(O)c(C(=O)O)c2)c1 [Compound 15]	0.32 µM		IC50 (uM) B: suppressing effect on production of NO [1]: No
O=C(O)c1cc(NCCc2ccc(F)cc2F)ccc1O [Compound 17]	0.21 µM	> 300 µM	
O=C(O)c1cc(NCCc2ccc(Cl)c(Cl)c2)ccc1O [Compound 18]	0.1 µM	63.2 µM	
O=C(O)c1cc(NCCc2cccc(F)c2)ccc1O [Compound 19]	0.26 µM	82.6 µM	
O=C(O)c1cc(NCCc2ccccc2[N+](=O)[O-])ccc1O [Compound 20]	0.4 µM	12.5 µM	

Structure (SMILES)	IC50 (cerebral cortical cell; Neuron)	IC50 ([1]; Mus musculus)	other results
O=C(O)c1cc(NCCc2ccc(F)c(F)c2)ccc1O [Compound 21]	0.32 µM	23.7 µM	IC50 (beta-amyloid (Aβ42); [2]): 68 µM
O=C(O)c1cc(NCCc2cc(F)cc(F)c2)ccc1O [Compound 22]	0.25 µM	135 µM	
O=C(O)c1cc(NCCc2ccccc2F)ccc1O [Compound 23]	0.11 µM	34.9 µM	
O=C(O)c1cc(NCCc2ccc(Cl)cc2Cl)ccc1O [Compound 24]	0.031 µM	40.8 µM	IC50 (beta-amyloid (Aβ42); [2]): 29.2 µM
Cc1ccccc1CCNc1ccc(O)c(C(=O)O)c1 [Compound 25]	0.07 µM	18.6 µM	IC50 (uM) C: suppressing effect on production of beta-amyloid (beta-amyloid (Aβ42); [3]): No
O=C(O)c1cc(NCCc2cccc(C(F)(F)F)c2F)ccc1O [Compound 26]	0.13 µM	61.7 µM	IC50 (beta-amyloid (Aβ42); [2]): > 100 µM
O=C(O)c1cc(NCCc2cc(C(F)(F)F)cc(C(F)(F)F)c2)ccc1O [Compound 27]			IC50 (cerebral cortical cell): 0.044 µM; IC50 [1]: 6.25 µM; IC50 (beta-amyloid (Aβ42); [4]): 109 µM
O=C(O)c1cc(NCCCc2ccc(F)cc2)ccc1O [Compound 28]	0.12 µM	20.3 µM	
CCOc1ccc(CCNc2ccc(O)c(C(=O)O)c2)cc1 [Compound 29]	0.18 µM	42.2 µM	
Cc1cccc(CCNc2ccc(O)c(C(=O)O)c2)c1 [Compound 30]	0.39 µM	23.6 µM	IC50 (uM) C: suppressing effect on production of beta-amyloid (beta-amyloid (Aβ42); [3]): No
O=C(O)c1cc(NCCc2ccc(F)cc2C(F)(F)F)ccc1O [Compound 31]	0.25 µM	4.08 µM	
O=C(O)c1cc(NCCc2ccc(F)c(C(F)(F)F)c2)ccc1O [Compound 33]			IC50 (cerebral cortical cell): 0.036 µM; IC50 [1]: 31.1 µM; IC50 (beta-amyloid (Aβ42); [4]): > 100 µM
O=C(O)c1cc(NCCCc2ccc(C(F)(F)F)cc2)ccc1O [Compound 42]	0.062 µM	6.7 µM	IC50 (beta-amyloid (Aβ42); [2]): 68.3 µM
O=C(O)c1cc(NCCc2ccc(O)cc2)ccc1O [Compound 47]			IC50 (cerebral cortical cell): 0.32 µM; IC50 [1]: 11.5 µM
O=C(O)c1cc(NCCc2ccc(OC(F)(F)F)cc2)ccc1O [chemical 16, 2-Hydroxy-5-[2-(4-trifluoromethoxy-phenyl)-ethylamino]-benzoic acid]			IC50 (beta-amyloid (Aβ42); [5]): 67.5 µM
O=C(O)c1cc(NCCc2ccc(F)c(F)c2)ccc1O [chemical 21, 5-[2-(3,4-Difluoro-phenyl)-ethylamino]-2-hydroxy-benzoic acid]			IC50 (beta-amyloid (Aβ42); [5]): 68 µM
O=C(O)c1cc(NCCc2ccc(Cl)cc2Cl)ccc1O [chemical 24, 5-[2-(2,4-Dichloro-phenyl)-ethylamino]-2-hydroxy-benzoic acid]			IC50 (beta-amyloid (Aβ42); [5]): 29.2 µM
O=C(O)c1cc(NCCCc2ccc(Cl)c(Cl)c2)ccc1O [chemical 43, 5-[3-(3,4-Dichloro-phenyl)-propylamino]-2-hydroxy-benzoic acid]			IC50 (beta-amyloid (Aβ42); [5]): 111 µM

Continued, in another order:

IC50 (cerebral cortical cell; Neuron)	IC50 ([1]; Mus musculus)	Structure (SMILES)	other results
0.29 µM	85.4 µM	O=C(O)c1cc(NCCCc2ccccc2)ccc1O [Compound 32]	
0.13 µM	98.8 µM	O=C(O)c1cc(NCCc2cc(F)cc(C(F)(F)F)c2)ccc1O [Compound 34]	IC50 (uM) C: suppressing effect on production of beta-amyloid (beta-amyloid (Aβ42); [3]): No
0.035 µM	67.5 µM	O=C(O)c1cc(NCCCc2ccc(F)c(F)c2)ccc1O [Compound 35]	IC50 (beta-amyloid (Aβ42); [2]): > 100 µM
0.06 µM	99.8 µM	O=C(O)c1cc(NCCc2ccc(C(F)(F)F)cc2F)ccc1O [Compound 36]	IC50 (beta-amyloid (Aβ42); [2]): > 100 µM
0.27 µM	> 100 µM	O=C(O)c1cc(NCCc2cc(F)ccc2C(F)(F)F)ccc1O [Compound 37]	
0.069 µM	35 µM	O=C(O)c1cc(NCCc2cc(C(F)(F)F)ccc2F)ccc1O [Compound 38]	IC50 (uM) C: suppressing effect on production of beta-amyloid (beta-amyloid (Aβ42); [3]): No
0.31 µM		O=C(O)c1cc(NCCc2ccc(F)cc2)ccc1O [Compound 39]	IC50 (uM) B: suppressing effect on production of NO [1]: No
0.073 µM	> 100 µM	O=C(O)c1cc(NCCCCc2ccccc2)ccc1O [Compound 40]	IC50 (uM) C: suppressing effect on production of beta-amyloid (beta-amyloid (Aβ42); [3]): No
0.11 µM	26.5 µM	Cc1ccc(CCCNc2ccc(O)c(C(=O)O)c2)cc1 [Compound 41]	IC50 (uM) C: suppressing effect on production of beta-amyloid (beta-amyloid (Aβ42); [3]): No
0.04 µM	51.8 µM	O=C(O)c1cc(NCCCc2ccc(Cl)c(Cl)c2)ccc1O [Compound 43]	IC50 (beta-amyloid (Aβ42); [2]): 111 µM
0.12 µM	51 µM	O=C(O)c1cc(NCCCc2ccc(Cl)cc2Cl)ccc1O [Compound 44]	
0.1 µM	20.7 µM	O=C(O)c1cc(NCCc2ccc(C(F)(F)F)c(F)c2)ccc1O [Compound 45]	
